Series [1] deals with subjects with schizophrenia. Description: Expanded two-week intranasal oxytocin study in schizophrenia, 25 subjects (Example 8). The following applies: for Brüne 2nd false belief, M / Brüne 3nd false belief, M / Brüne deception, M / PANSS general score, M / PANSS negative score, M / PANSS positive score, M / PANSS social items mean (suspiciousness, hostility, social withdrawal passive/active, uncooperativeness), M / PANSS total score, M / Paranoia Scale, M / Trustworthiness task (ratings of untrustworthy faces), M: N = 14. It is filed as in vivo, human. The text has this:
(§1) This was a randomized, double blind, placebo-controlled 2-week treatment trial. Screening of each subject included a review of psychiatric and medical history, physical examination, an ECG, and blood and urine collection for standard laboratory tests. Within 1 week after screening, baseline social cognition measures were obtained followed by psychiatric ratings. Daily intranasal treatments were initiated after baseline assessments. Social cognition measures and psychiatric ratings were repeated beginning 50 minutes after the AM dose of study medication on treatment day 14. The social cognition instruments were the Brüne Theory of Mind Picture Stories Task (Brüne, (2003) Social cognition and behaviour in schizophrenia. In Brüne, Ribbert, Schiefenhövel (eds.) The social brain-evolution and pathology. John Wiley & Sons; Chichester, pp. 277-313) and the Trustworthiness Task (Adolphs et al., Nature 393: 470-474 (1998)). Psychiatric measures included the Positive and Negative Symptom Scale (PANSS) (Kay et al., Schizophr. Bull. 13: 261-276 (1987))) and the Paranoia Scale (Fenigstein & Vanable, J. Pers. Soc. Psych. 62: 129-138 (1992))). The first 10 subjects were studied as inpatients on a clinical research unit and the last 10 subjects were studied in an outpatient research clinic. Blood and urine laboratory tests, ECGs and body weights were obtained at screening and treatment day 14 in all subjects and also on treatment days 3 and 7 in inpatients.
(§2) Subjects remained on their pre-study medication regimen and doses throughout the treatment trial. They self-administered intranasal study drug twice daily; before breakfast and before dinner. Each dose consisted of six 0.1 ml insufflations (alternating between the left and right nostril) of oxytocin spray containing approximately 24 international units of oxytocin (SYNTOCINON® Spray, Novartis) or placebo. Outpatient compliance with test treatments was monitored by weighing spray vials before they were dispensed and after the morning dose on treatment day 14.
We have expanded our double blind, placebo-controlled pilot study described in Example 7 to include 25 subjects with schizophrenia in which we compared the effects of 14 days of twice daily intranasal oxytocin (24 IU/dose, N=14) vs. placebo (N=11) administration on PANSS (Positive and Negative Symptom Scale) total and PANSS item scores, subject self-ratings on the Paranoia Scale and performance on social cognition tests (the Brüne Theory of Mind Picture Stories Task and the Trustworthiness Task). As in the smaller study, all subjects' symptoms and psychotropic medication regimens were stable for ≧1 month prior to the treatment trial. Medication doses remained the same during the study period.
Because of our interest in oxytocin effects on social function in schizophrenia, we focused our statistical analysis on an a priori subset of PANSS items: P6 (suspiciousness/persecution [paranoia]), P7 (hostility), N4 (passive/apathetic social withdrawal), G8 (uncooperativeness) and G16 (active social avoidance). These items were used as inclusion criteria for this study (see description in Example 7). Values on these items are highly correlated in our sample (Cronbach's alpha=0.84).

The subject of series [2] is patients with paranoid or undifferentiated schizophrenia. As to the kind of experiment: Randomized, double blind, placebo-controlled 2-week intranasal oxytocin trial in schizophrenia (Example 7). In kind it is in vivo, human.
From the text: Twenty-three subjects were initially enrolled; 2 dropped out before randomization to treatment and 1 dropped out early because they developed an upper respiratory infection; the remaining 20 completed the protocol and constitute our study sample. Inclusion criteria were: 18-55 years of age, DSM-IV diagnosis of paranoid or undifferentiated schizophrenia ≧1 year, PANSS total score ≧60, PANSS suspiciousness/persecutory item score ≧4 or 3 on this item and ≧3 on at least one other social behavior-relevant PANSS item (hostility, passive/apathetic social withdrawal, uncooperativeness, active social withdrawal), treatment with one or more standard antipsychotic medications, stability of medication doses and symptoms ≧1 month.
as §1, §2
All dependent variables were examined for normality and skewness prior to analyses. We compared oxytocin and placebo group means using an unpaired t test for the following baseline variables: demographic, psychiatric history and diagnosis, inpatient versus outpatient status, social cognition and psychiatric measures. We performed a paired t test within each treatment group examining changes from baseline to two weeks on the following variables: biological (laboratory test values, vital signs), social cognition measures (Brüne Task, Trustworthiness Task), and psychiatric measures (PANSS total and subscales, Paranoia Scale). To compare the treatment groups over time on social cognition and psychiatric variables, we used analysis of covariance controlling for the baseline measure of the dependent variable.

The subject of series [3] is alcohol dependent patients. As to the kind of experiment: Double-blind, placebo controlled trial of twice daily intranasal oxytocin for alcohol withdrawal (Example 2). It is filed as in vivo, human. The text has this:
This is a double-blind, placebo controlled comparison of the efficacy of twice daily intranasal administration of oxytocin and placebo (saline) in reducing alcohol withdrawal symptoms, the number of bouts of withdrawal during which symptoms are of sufficient magnitude requiring lorazepam treatment (see definitions below) and the amount of lorazepam required to resolve withdrawal bouts. Treatment group assignment are random within each sex. Subjects are patients admitted to UNC Hospitals or the UNC CTRC for medical detoxification. Each treatment group is composed of up to 40 subjects. The study statistician constructs a randomization plan to randomize 80 subjects to 2 groups of 40 subjects each with a blocksize of 4. This is a permuted blocksize as this is a blind study.
Informed consent is obtained the morning after admission to the UNC Hospitals medical units or before the outpatient screening evaluation before admission to the UNC CTRC. After consent is obtained, subjects are randomly assigned to a treatment group (oxytocin or placebo). Prior to receiving their first intranasal treatment, an ECG is obtained and blood drawn to obtain serum for assay of cytokine and allopregnanolone concentrations. Subjects also rate their symptoms using the Alcohol Withdrawal Symptom Checklist (AWSC, Pittman et al., Alcohol Clin. Exp. Res. 31: 612-618 (2007)) prior to receiving their first test dose. These procedures are done/overseen by research nurses or physicians. Subjects usually receive their first intranasal test dose between 1000 and 1200 hours, which consists of 6 insufflations of SYNTOCINON® Spray (approximately 24 IU) or placebo, with each insufflation given 30 seconds apart and alternating between nostrils. Test doses taken again at 1700 hr later that day (Admission Day 1) and at 0900 and 1700 hr on Admission Days 2 and 3. Oxytocin test treatments are administered from 5 ml intranasal spray vials designed to deliver 0.1 ml metered volume per insufflation. The placebo treatments are administered from 60 ml intranasal spray vials (each containing 30 ml of solution) also designed to deliver 0.1 ml metered volume per insufflation. Vials containing oxytocin and placebo spray are blind labeled by the UNC Investigational Drug Service. Research nurses or physicians oversee subject self-administration of all intranasal test doses. After enrollment on Admission day 1 and in the morning on Admission days 2 and 3, subjects are given multiple copies of the AWSC questionnaire and requested to complete one each time the unit nurses do CIWA ratings. These questionnaires are retrieved by research staff the following morning. Shortly after the morning test dose on Admission days 2 and 3, subjects complete the Alcohol Craving Visual Analog Scales (ACVAS), the Penn Alcohol Craving Scale (PACS), and the Profile of Mood States (McNair et al., (1971) EDITS manual for the profile of mood states. San Diego, Calif. Educational and Industrial Testing Service). In addition, a consumption diary is administered and given to the subject to quantify the amount of alcohol participants have been consuming prior to admission in the study. On Days 2 and 3, research nurses also draw (and subsequently process) blood serum samples to assay cytokine and allopregnanolone concentrations shortly after the morning test dose. Additional blood is drawn after the morning test dose on admission day 2 to obtain serum for tests to be run (magnesium, Cl, Ca, Na, K, BUN, creatinine, and GGT). Another ECG is also obtained shortly after the morning test treatment on Admission day 2. Research staff retrieves on a daily basis CIWA ratings and vital sign measurements obtained on each subject from their electronic medical record.
In all subjects, lorazepam doses are administered PO or IV (if subjects cannot take medication PO) whenever CIWA ratings are ≧12. CIWA ratings are obtained 1 hr after the initial dose of lorazepam and another dose administered if CIWA ratings ≧10. […]

For series [4] the following is noted: Burbach et al., Eur. J. Pharmacol. 94: 125-131 (1983); cited from earlier work.
[5] abbreviates: ANCOVA controlling for baseline, 14-day treatment.

Ends that are not written are not given here.

With `CC[C@H](C)[C@@H]1NC(=O)[C@H](Cc2ccc(O)cc2)NC(=O)[C@@H](N)CSSC[C@@H](C(=O)N2CCC[C@H]2C(=O)N[C@@H](CC(C)C)C(=O)NCC(N)=O)NC(=O)[C@H](CC(N)=O)NC(=O)[C@H](CCC(N)=O)NC1=O` [Oxytocin, oxytocin], in series [1] (ANOVA, F=3.10, p=0.0923), the “declines in PANSS positive symptom subscale scores compared to the Placebo group” value was “trends toward significantly greater declines”. The “declines in PANSS social items mean scores compared to the Placebo group” value in series [1] (ANOVA, F=3.15, p=0.0898) is listed as “trends toward significantly greater declines”. Also, the “decline in PANSS total score compared to the Placebo group” value in series [1] (ANOVA, F=4.29, p=0.05) was “significantly greater decline”. In addition, in series [1] (Baseline), the “Brüne 2nd false belief, M” value is on record as 1.93; the “Brüne 3nd false belief, M” value amounted to 1.93; the “Brüne deception, M” value was 2.43; the “PANSS general score, M” value was 38.21. In series [1] (Baseline), the “PANSS negative score, M” value is reported as 20.36; the “PANSS positive score, M” value amounted to 19.79; the “PANSS social items mean (suspiciousness, hostility, social withdrawal passive/active, uncooperativeness), M” value was found to be 2.91; the “PANSS total score, M” value is 79.00. For the same molecule, in series [1] (Baseline), the “Paranoia Scale, M” value is 48.00 and the “Trustworthiness task (ratings of untrustworthy faces), M” value was −15.71. For the same molecule, the “PANSS total score, M” value in series [1] (Tx Day 14, 24 IU/dose intranasal twice daily) turned out to be 69.21. In series [1] (Tx Day 14), the “Brüne 2nd false belief, M” value was 2.29; the “Brüne 3nd false belief, M” value was found to be 2.43; the “Brüne deception, M” value worked out at 2.86; the “PANSS general score, M” value worked out at 34.07. Besides, in series [1] (Tx Day 14), the “PANSS negative score, M” value is listed as 18.00; the “PANSS positive score, M” value was determined as 17.14; the “PANSS social items mean (suspiciousness, hostility, social withdrawal passive/active, uncooperativeness), M” value was determined as 2.39; the “Paranoia Scale, M” value is 45.00. Besides, in series [1] (Tx Day 14), the “Trustworthiness task (ratings of untrustworthy faces), M” value is −10.36. In addition, in series [2] (setting [5]), the “PANSS general subscale scores, LS mean” value came to 34.34 and the “PANSS total scores, Least squared (LS) mean” value came out at 70.56. Further, the “group differences in change over the treatment period for other PANSS or social cognition variables” value in series [2] (ANCOVA, oxytocin vs placebo) is given as “no group differences”. The “decline in PANSS general subscale scores compared to placebo” value in series [2] (ANCOVA, F=3.78, p=0.069) is recorded as “trend toward a significantly greater decline”. For the same molecule, the “decline in PANSS total scores compared to the placebo group” value in series [2] (ANCOVA, F=4.60, p=0.047) was “significantly greater decline”. In addition, the “change in other Brüne Task measures (second order belief, third order false belief, recognition of cheating)” value in series [2] (baseline to treatment day 14) is on record as “no changes that approached significance”. Besides, the adverse events result in series [3] (3 days of protocol, all 10 subjects) is “no unexpected adverse events”. For the same molecule, the “Total lorazepam (mg) required to control withdrawal symptoms, Mean” value in series [3] (3 days of protocol, intranasal approx. 24 IU twice daily, N=6) stood at 2.33 mg. Also, the “Mean CIWA Day 1” value in series [3] (Day 1, intranasal approx. 24 IU twice daily, N=6) came out at 2.40. The “Mean AWSC Day 1” value in series [3] (Day 1, self-rating, N=6) stood at 6.17. Further, the “Mean ACVAS Day 2” value in series [3] (Day 2, 100 mm Alcohol Craving Visual Analog Scale, N=6) is on record as 33.83. For the same molecule, in series [3] (Day 2, N=6), the “Mean CIWA Day 2” value turned out to be 0.81. For the same molecule, the “Mean PACS Day 2” value in series [3] (Day 2, Penn Alcohol Craving Scale, N=6) came to 13.33. In addition, in series [3] (Day 2, self-rating, N=6), the “Mean AWSC Day 2” value is on record as 5.40. In series [3] (Day 3, 100 mm Alcohol Craving Visual Analog Scale, N=6), the “Mean ACVAS Day 3” value is on record as 11.23. Further, the “Mean CIWA Day 3” value in series [3] (Day 3, N=6) came to 1.52. In series [3] (Day 3, Penn Alcohol Craving Scale, N=6), the “Mean PACS Day 3” value is reported as 9.33. The “Mean AWSC Day 3” value in series [3] (Day 3, self-rating, N=6) is 3.78. Also, in series [3] (oxytocin treatment group, 3-day detoxification), the “subjects that required no lorazepam treatment at all” value is given as 4 of the 6.
Turning to “oxytocin fragment 4-9: biologically active fragment of oxytocin, reported to be more potent than the full-length molecule (QNCPLG; ends and bridges not checked; UniProt P01178 23-28, looked up, fragment)”, the “potency relative to the full-length molecule” value in series [4] is recorded as “more potent than the full-length molecule”.

(Values after patent US20130085106A1, “METHODS AND FORMULATIONS FOR OXYTOCIN TREATMENT OF SUBSTANCE USE, PSYCHIATRIC AND OTHER DISORDERS” (THE UNIVERSITY OF NORTH CAROLINA AT CHAPEL HILL, priority 2010, published 2013).)
